Data from patent US10611748B2, “Xanthone derivatives for the treatment of hepatitis B virus disease” (Hoffmann-La Roche Inc., priority 2017, dated 2020).

Legend:
[1] = tested on: extracellular HBsAg level in HBV-infected PHH; experiment: Cryopreserved primary human hepatocytes (PHH) assay, HBsAg; type: cell-based; settings: Hepatitis B virus, Hepatocyte, 216 h, read-out: HBsAg IC50
Method: (§1) Cryopreserved PHH (BioreclamationIVT, Lot YJM) was thawed at 37° C. and gently transferred into pre-warmed InVitroGRO HT medium (BioreclamationIVT, Cat. S03317). The mixture was centrifuged at 70 relative centrifugal force (RCF) for 3 minutes at RT, and the supernatant was discarded. Pre-warmed InVitroGRO CP medium (BioreclamationIVT, Cat # S03316) was added to the cell pellet to gently re-suspend cells. The cells were seeded at the density of 5.8×10^4 cells per well to collagen I coated 96-well plate (Gibco, Cat. A1142803) with the InVitroGRO CP medium. All plates were incubated at 37° C. with 5% CO2 and 85% humidity.
(§2) At 20 hours after plating, the medium was changed to PHH culture medium (Dulbecco's Modified Eagle Medium (DMEM)/F12 (1:1) (Gibco, Cat. 11320-033), 10% fetal bovine serum (Gibco Cat. 10099141), 100 U/mL penicillin, 100 μg/mL streptomycin (Gibco, Cat. 151401-122), 5 ng/mL human epidermal growth factor (Invitrogen Cat. PHG0311L), 20 ng/mL dexamethasone (Sigma, Cat. D4902) and 250 ng/mL human recombinant insulin (Gibco, Cat. 12585-014)). And the cells were incubated at 37° C. with 5% CO2 and 85% humidity for 4 hours. The medium was then changed to pre-warmed PHH culture medium containing 4% polyethylene glycol (PEG) MW8000 (Sigma, Cat. P1458-50ML) and 1% DMSO (Sigma, Cat. D2650). 5.8×10^6 genomic equivalents of HBV were added into the medium.
(§3) At 24 hours post-infection, the cells were gently washed with PBS and refreshed with PHH culture medium supplemented with 1% DMSO, and 0.25 mg/mL Matrix gel (Corning, Cat. 356237) at 200 μL per well. All plates were immediately placed in at 37° C. CO2 incubator.
(§4) 24 hours later, serial dilutions of compounds made with DMSO were further diluted with the same culture medium (PHH culture medium supplemented with 1% DMSO and 0.25 mg/mL Matrix gel as described above) before they were added to the cells to reach desired final compound concentrations and 1% DMSO concentration. The medium containing the compounds were refreshed every three days.
(§5) At 9 days post-compound treatment, extracellular HBsAg level were measured with Chemiluminescence Immuno Assay (CLIA) kit (Autobio, HBsAg Quantitative CLIA). Extracellular HBV DNA was extracted by MagNA Pure 96 system (Roche) and then determined by quantitative PCR with the following primers and probe: HBV-Forward Primer (SEQ ID NO:2): […] (5′ to 3′); HBV-Reverse Primer (SEQ ID NO:3): […](5′ to 3′); HBV-Probe: 5′+tetramethylrhodamine+SEQ ID NO:4+black hole quencher 2-3′, wherein SEQ ID NO:4 is […].
(§6) HBsAg IC50 and HBV DNA IC50 values were derived from the dose-response curve using 4 parameter logistic curve fit method.

[2] = tested on: extracellular HBV DNA in HBV-infected PHH; experiment: Cryopreserved primary human hepatocytes (PHH) assay, HBV DNA; type: cell-based; settings: Hepatitis B virus, Hepatocyte, 216 h; cryopreserved PHH infected with HBV, 9 days post-compound treatment, quantitative PCR
Method: as §1, §2, §3, §4, §5, §6

| Structure (SMILES) | IC50 [1] [µM] | IC50 [2] [µM] |
| --- | --- | --- |
| O=C(O)C1CCN(c2ccc3c(=O)c4cccc(Cl)c4oc3c2)C1 (stereo not drawn) [Example 2, 1-(5-chloro-9-oxo-xanthen-3-yl)pyrrolidine-3-carboxylic acid] | 1.33 | 2.3 |
| O=C(O)[C@@H]1CCN(c2ccc3c(=O)c4cccc(Cl)c4oc3c2)C1 [Example 3, (3R)-1-(5-chloro-9-oxo-xanthen-3-yl)pyrrolidine-3-carboxylic acid] | 1.64 | 1.61 |
| O=C(O)[C@H]1CCN(c2ccc3c(=O)c4cccc(Cl)c4oc3c2)C1 [Example 4, (3S)-1-(5-chloro-9-oxo-xanthen-3-yl)pyrrolidine-3-carboxylic acid] | 1.58 | 1.93 |
| O=C(O)C1CCN(c2ccc3c(=O)c4cccc(F)c4oc3c2)C1 (stereo not drawn) [Example 5, 1-(5-fluoro-9-oxo-xanthen-3-yl)pyrrolidine-3-carboxylic acid] | 17.8 | 9.62 |
| O=C(O)C1CCN(c2ccc3c(=O)c4c(Cl)ccc(Cl)c4oc3c2)C1 (stereo not drawn) [Example 26, 1-(5,8-dichloro-9-oxo-xanthen-3-yl)pyrrolidine-3-carboxylic Acid] | 1.17 | – |
